Data from patent publication US6080771A, “DC107 derivatives” (Kyowa Hakko Kogyo Co., Ltd., priority 1996, dated 2000).
In brackets after ≈: the same amount, converted by molar mass. Where two headings read alike, the source gives them in different places.

Experiments:
[1] = system: Enterococcus hirae ATCC 10541; test: Antimicrobial activity, agar dilution method (MIC), EH; conditions: pH 7
Experimental: Antimicrobial activity was determined by the agar dilution method using a culture medium (pH 7) prepared by dissolving 3 g of Bacto-Tryptone (manufactured by Difco, Co.), 3 g of meat extract, 1 g of yeast extract, 1 g of glucose, and 16 g of agar in 1 l of water.
EH: Enterococcus hirae ATCC 10541

[2] = system: Bacillus substilis NO. 10707; test: Antimicrobial activity, agar dilution method (MIC), BS; assay type: cell-based
Excerpt: | BS: Bacillus substilis NO. 10707

[3] = system: Sarcoma 180 mouse solid tumor; test: Antitumor activity against Sarcoma 180 mouse solid tumor; assay type: in vivo, male ddY mice; conditions: Sarcoma-180, iv, 168 h, single i.v., tumor volume on day 7 from transplant, read-out: T/C (tumor volume ratio treated/control)
Experimental: To a ddY mouse were intraperitoneally transplanted 5×10^6 sarcoma 180 cells. On the seventh day from the transplant, the cells were collected from the ascites, washed once with sterilized physiological saline, and then diluted with sterilized physiological saline to prepare a cell suspension having a concentration of 5×10^7 cells/mL. This suspension was transplanted in an amount of 0.01 mL to a subcutaneous part of the right axilla of each of male ddY mice each weighing 20±1 g.
A test compound was dissolved in physiological saline containing polyoxyethylene sorbitan monolaurate. At 24 hours after the tumor transplant, 0.2 mL of the solution was intravenously administered to the tail of each of a group of five mice.

[4] = system: Staphylococcus aureus ATCC 6538P; test: Antimicrobial activity, agar dilution method (MIC), SA; assay type: cell-based; conditions: ATCC6538P, pH 7, read-out: MIC, SA
Excerpt: | SA: Staphylococcus aureus ATCC 6538P

[5] = system: Klebisiella pneumoniae ATCC 10031; test: Antimicrobial activity, agar dilution method (MIC), KP; assay type: cell-based
Excerpt: | KP: Klebisiella pneumoniae ATCC 10031

Escherichia coli ATCC 26 = test: Antimicrobial activity, agar dilution method (MIC), EC; assay type: cell-based; conditions: ATCC26, pH 7, read-out: MIC, EC
Excerpt: | EC: Escherichia coli ATCC 26

[6] = NO.10707, agar dilution, pH 7, read-out: MIC, BS
[7] = agar dilution, pH 7, read-out: MIC, KP
[8] = NO.10707, pH 7, read-out: MIC, BS

SMILES: C/C1=C\C(OC(=O)COCCOCCO)C(=O)/C=C/C=C\c2csc(n2)C(C)NC(=O)CC2(CC1)[S+]([O-])SC(=O)C2(C)O (stereo not shown) [Compound 8]
- MIC, EH [1]: 0.13 µg/mL (≈ 0.198 µM)
- MIC [2, 6]: 0.13 µg/mL (≈ 0.198 µM)
- response vs control in vivo at 4 mg/kg [3]: 36%
- MIC ([4]; agar dilution): 0.13 µg/mL (≈ 0.198 µM)
- MIC [5, 7]: 0.13 µg/mL (≈ 0.198 µM)
- MIC (Escherichia coli ATCC 26): 2.1 µg/mL (≈ 3.2 µM)

SMILES: COCCOCCOC(C)(C)C(=O)OC1/C=C(\C)CCC2(CC(=O)NC(C)c3nc(cs3)/C=C\C=C\C1=O)[S+]([O-])SC(=O)C2(C)O (stereo not shown) [Compound 10]
- MIC, EH [1]: 0.081 µg/mL (≈ 0.116 µM)
- MIC [2, 6]: 0.041 µg/mL (≈ 0.0587 µM)
- MIC ([4]; agar dilution): 0.081 µg/mL (≈ 0.116 µM)
- MIC [5, 7]: 0.65 µg/mL (≈ 0.93 µM)
- MIC (Escherichia coli ATCC 26): 0.65 µg/mL (≈ 0.93 µM)

SMILES: COCCOCCOCCOCC(=O)OC1/C=C(\C)CCC2(C(C)(O)C(=O)SCc3oc(=O)oc3C)CC(=O)N(C(C)c3nc(cs3)/C=C\C=C\C1=O)[S+]2[O-] (stereo not shown) [Compound 13]
- response vs control in vivo at 8 mg/kg [3]: 39%

SMILES: C/C1=C\C(OC(=O)COCCOCCO)C(=O)/C=C/C=C\c2csc(n2)C(C)N2C(=O)CC(C(C)(O)C(=O)SCc3oc(=O)oc3C)(CC1)[S+]2[O-] (stereo not shown) [Compound 17]
- MIC, EH [1]: 1.8 µg/mL (≈ 2.34 µM)
- MIC [2, 8]: 1.82 µg/mL (≈ 2.37 µM)
- response vs control in vivo at 8 mg/kg [3]: 37%
- MIC [4]: 1.8 µg/mL (≈ 2.34 µM)
- MIC ([5]; pH 7, read-out: MIC, KP): 1.8 µg/mL (≈ 2.34 µM)

SMILES: COCCOCCOCCOCCOCCOCC(=O)OC1/C=C(\C)CCC2(C(C)(O)C(=O)SCC3=C(C)OC(C)(C)OC3=O)CC(=O)N(C(C)c3nc(cs3)/C=C\C=C\C1=O)[S+]2[O-] (stereo not shown) [Compound 21]
- response vs control in vivo at 16 mg/kg ([3]; 16 mg/kg): 45%

SMILES: C/C1=C\C(OC(=O)COCCOCCOCCOCCO)C(=O)/C=C/C=C\c2csc(n2)C(C)NC(=O)CC2(CC1)[S+]([O-])SC(=O)C2(C)O (stereo not shown) [Compound 27]
- MIC, EH [1]: 0.065 µg/mL (≈ 0.0873 µM)
- MIC [2, 6]: 0.13 µg/mL (≈ 0.175 µM)
- response vs control in vivo at 8 mg/kg [3]: 18%
- MIC ([4]; agar dilution): 0.13 µg/mL (≈ 0.175 µM)
- MIC [5, 7]: 0.065 µg/mL (≈ 0.0873 µM)
- MIC (Escherichia coli ATCC 26): 16.7 µg/mL (≈ 22.4 µM)

SMILES: COCCOCCOCC(=O)OC1/C=C(\C)CCC2(C(C)(O)C(=O)SCOC(=O)CC[C@H](NC(=O)[C@@]34O[C@H]5COC(C)(C)O[C@H]5[C@@H]3OC(C)(C)O4)C(=O)OC)CC(=O)N(C(C)c3nc(cs3)/C=C\C=C\C1=O)[S+]2[O-] (stereo partly shown) [Compound 28]
- response vs control in vivo at 8 mg/kg [3]: 31%

SMILES: COCCOCCOCC(=O)OC1/C=C(\C)CCC2(C(C)(O)C(=O)SCOC(=O)CC[C@H](NC(=O)C3(C)COC(C)(C)OC3)C(=O)OC)CC(=O)N(C(C)c3nc(cs3)/C=C\C=C\C1=O)[S+]2[O-] (stereo partly shown) [Compound 29]
- response vs control in vivo at 8 mg/kg [3]: 47%

SMILES: COCCOCCOCC(=O)OCCOCCOCC(=O)OC1/C=C(\C)CCC2(CC(=O)NC(C)c3nc(cs3)/C=C\C=C\C1=O)[S+]([O-])SC(=O)C2(C)O (stereo not shown) [Compound 30]
- response vs control in vivo at 4 mg/kg [3]: 43%

SMILES: C/C1=C\C(OC(=O)COCCOCCOCCOCCO)C(=O)/C=C/C=C\c2csc(n2)C(C)N2C(=O)CC(C(C)(O)C(=O)SCc3oc(=O)oc3C)(CC1)[S+]2[O-] (stereo not shown) [Compound 38]
- MIC, EH [1]: 1.8 µg/mL (≈ 2.1 µM)
- MIC [2, 8]: 1.8 µg/mL (≈ 2.1 µM)
- response vs control in vivo at 8 mg/kg [3]: 43%
- MIC [4]: 3.7 µg/mL (≈ 4.32 µM)
- MIC ([5]; pH 7, read-out: MIC, KP): 1.8 µg/mL (≈ 2.1 µM)

SMILES: COCCOCCOCC(=O)OC1/C=C(\C)CCC2(C(C)(O)C(=O)SCOC(=O)OCCN3CCCC3=O)CC(=O)N(C(C)c3nc(cs3)/C=C\C=C\C1=O)[S+]2[O-] (stereo not shown) [Compound 44]
- response vs control in vivo at 2 mg/kg ([3]; 2.0 mg/kg): 43%

SMILES: COCCOCCOCC(=O)OC1/C=C(\C)CCC2(C(C)(O)C(=O)SCOC(=O)OCCOCCOC)CC(=O)N(C(C)c3nc(cs3)/C=C\C=C\C1=O)[S+]2[O-] (stereo not shown) [Compound 45]
- response vs control in vivo at 4 mg/kg [3]: 45%

SMILES: COCCOCCOCC(=O)OC1/C=C(\C)CCC2(C(C)(O)C(=O)SCOC(=O)COCCOCCO)CC(=O)N(C(C)c3nc(cs3)/C=C\C=C\C1=O)[S+]2[O-] (stereo not shown) [Compound 47]
- response vs control in vivo at 8 mg/kg [3]: 40%

SMILES: C/C1=C\C(OC2C=C[C@@H](O)[C@H](C)O2)C(=O)/C=C/C=C\c2csc(n2)C(C)N2C(=O)CC(C(C)(O)C(=O)SCc3oc(=O)oc3C)(CC1)[S+]2[O-] (stereo partly shown) [Compound 67]
- response vs control in vivo at 8 mg/kg [3]: 44%

SMILES: CC(=O)O[C@@H]1C=CC(OC2/C=C(\C)CCC3(C(C)(O)C(=O)SCc4oc(=O)oc4C)CC(=O)N(C(C)c4nc(cs4)/C=C\C=C\C2=O)[S+]3[O-])O[C@H]1C (stereo partly shown) [Compound 68]
- response vs control in vivo at 8 mg/kg [3]: 50%
